Assay results published in paper PMC3629139, “A Powerful Molecular Engineering Tool Provided Efficient Chlamydomonas Mutants as Bio-Sensing Elements for Herbicides Detection” (PLoS ONE, 2013).

Legend:
Assay in all cases: chlorophyll a fluorescence induction (OJIP), inhibition of 1-VJ (QA to QB electron transfer) in living algal cells
Format in all cases: cell-based
Details in all cases: read-out: Atrazine / I50×10^-7 M / (±SE)
[1] = target: T1, photosystem II (PSII) D1 protein (Chlamydomonas reinhardtii, UniProt P07753, L200I)
T1 construct: gene psbA; full-length D1 from intronless psbA in the chloroplast, assembled in native PSII (with D2 and other subunits) in living algal cells; D1 mutants by ep-PCR of Ala153-Ala294 region and biolistic transformation of Del1
From the text: (§1) chlorophyll a fluorescence induction (OJIP), inhibition of 1-VJ (QA to QB electron transfer) in living algal cells on photosystem II (PSII) D1 protein

[2] = target: T2, photosystem II (PSII) D1 protein (Chlamydomonas reinhardtii, UniProt P07753, I281T)
T2 construct: gene psbA; full-length D1 from intronless psbA in the chloroplast, assembled in native PSII (with D2 and other subunits) in living algal cells; D1 mutants by ep-PCR of Ala153-Ala294 region and biolistic transformation of Del1
From the text: as §1

[3] = target: T3, photosystem II (PSII) D1 protein (Chlamydomonas reinhardtii, UniProt P07753, G207S)
T3 construct: gene psbA; full-length D1 from intronless psbA in the chloroplast, assembled in native PSII (with D2 and other subunits) in living algal cells; D1 mutants by ep-PCR of Ala153-Ala294 region and biolistic transformation of Del1
From the text: as §1

[4] = target: T4, photosystem II (PSII) D1 protein (Chlamydomonas reinhardtii, UniProt P07753)
T4 construct: gene psbA; full-length D1 from intronless psbA in the chloroplast, assembled in native PSII (with D2 and other subunits) in living algal cells; D1 mutants by ep-PCR of Ala153-Ala294 region and biolistic transformation of Del1
From the text: as §1

[5] = target: T5, photosystem II (PSII) D1 protein (Chlamydomonas reinhardtii, UniProt P07753, M172L)
T5 construct: gene psbA; full-length D1 from intronless psbA in the chloroplast, assembled in native PSII (with D2 and other subunits) in living algal cells; D1 mutants by ep-PCR of Ala153-Ala294 region and biolistic transformation of Del1
From the text: as §1

[6] = target: T6, photosystem II (PSII) D1 protein (Chlamydomonas reinhardtii, UniProt P07753, F211S/P162S)
T6 construct: gene psbA; full-length D1 from intronless psbA in the chloroplast, assembled in native PSII (with D2 and other subunits) in living algal cells; D1 mutants by ep-PCR of Ala153-Ala294 region and biolistic transformation of Del1
From the text: as §1

`CCNc1nc(Cl)nc(NC(C)C)n1` [Atrazine, 2-chloro-4-(ethylamine)-6-(isopropylamine)-s-triazine] gave an IC50 [1] of 180 nM, an IC50 [2] of 200 nM and an IC50 [3] of 210 nM. The IC50 [4] was 240 nM, the IC50 [5] was 220 nM and the IC50 [6] was 1970 nM.
